US9540412B2, “Methods of preparing targeted aptamer prodrugs” (Albert Einstein College of Medicine, Inc., priority 2010, dated 2017)
Where two headings read alike, the source gives them in different places.

T1: human protein tyrosine kinase-7 (Homo sapiens, UniProt Q13308)
T1 construct: This protein is overexpressed on a variety of leukemia cell lines; endogenous in cells; host or cells: 'target cells'
T1 sequence (Q13308 31-1070): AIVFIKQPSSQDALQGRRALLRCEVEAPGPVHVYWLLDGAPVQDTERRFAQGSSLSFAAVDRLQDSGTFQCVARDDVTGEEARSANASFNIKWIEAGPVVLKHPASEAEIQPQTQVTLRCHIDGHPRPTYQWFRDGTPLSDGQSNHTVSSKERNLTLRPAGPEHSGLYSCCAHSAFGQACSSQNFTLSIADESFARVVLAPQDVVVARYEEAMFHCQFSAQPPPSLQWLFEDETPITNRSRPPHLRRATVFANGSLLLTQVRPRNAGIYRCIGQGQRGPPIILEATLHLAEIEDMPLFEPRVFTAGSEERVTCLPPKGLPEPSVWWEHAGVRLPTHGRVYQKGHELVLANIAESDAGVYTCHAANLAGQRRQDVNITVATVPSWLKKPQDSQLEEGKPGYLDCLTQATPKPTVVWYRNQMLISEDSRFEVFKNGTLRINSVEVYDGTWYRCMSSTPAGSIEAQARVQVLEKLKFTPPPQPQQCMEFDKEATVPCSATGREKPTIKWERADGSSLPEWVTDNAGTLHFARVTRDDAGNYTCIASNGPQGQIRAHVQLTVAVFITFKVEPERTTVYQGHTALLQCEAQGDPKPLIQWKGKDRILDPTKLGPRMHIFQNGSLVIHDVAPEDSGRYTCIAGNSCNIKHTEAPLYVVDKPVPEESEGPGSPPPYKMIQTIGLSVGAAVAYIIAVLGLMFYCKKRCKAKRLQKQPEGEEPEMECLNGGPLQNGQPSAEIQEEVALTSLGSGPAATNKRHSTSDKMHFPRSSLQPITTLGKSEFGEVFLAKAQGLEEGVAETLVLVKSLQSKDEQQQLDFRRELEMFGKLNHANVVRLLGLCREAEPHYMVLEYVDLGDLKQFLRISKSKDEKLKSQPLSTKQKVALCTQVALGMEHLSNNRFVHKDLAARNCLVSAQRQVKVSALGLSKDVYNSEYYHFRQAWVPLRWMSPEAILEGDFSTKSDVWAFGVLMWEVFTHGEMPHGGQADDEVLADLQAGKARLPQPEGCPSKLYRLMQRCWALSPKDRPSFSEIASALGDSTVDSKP


Experiments:
[1] = test system: HeLa cells; test: HeLa cell viability (alamarBlue) after aptamer-prodrug treatment; format: cell-based, human; details: 50 nM aptamer, 4 days, serum free media (DMEM containing 1% Nutridoma), FIG. 3
Text: To test the feasibility of this strategy for delivery of nucleoside analog drugs, two different anti-hTfR aptamers (designated min8 and min9.1) were extended with a 24 nucleotide extension. A complementary DNA oligonucleotide (FdC-oligo) was then synthesized to this region in which all cytosine residues had been replaced with the nucleoside analog 5F-deoxycytidine (FdC), a potent inhibitor of methyltransferase activity (Beumer et al. 2008). The aptamer-produgs were then assembled by mixing the drug oligo at a 1:1 molar ratio with one of two different minized anti-hTfR aptamers, min8, min9.1, or a non-targeting control aptamer (cntrl) in PBS and thermally equilibrated by heating at 70° C. Aptamer function following hybridization was confirmed by FACS using a FITC labeled version of the oligonucleotide.
The ability of the assembled anti-hTfR aptamer-prodrugs to deliver therapeutic cargo to cells was tested on HeLa cells. To avoid potential complications from degradation of the FdC-oligo (which is DNA and thus readily susceptible to degradation), these assays were performed in serum free media (DMEM containing 1% Nutridoma). Cells were incubated with increasing concentrations of either free drug, anti-hTfR aptamer-prodrugs or controls for 4 days, after which cell viability was assayed using the chromogenic substrate alamarBlue. […]

[2] = test system: Min6B1 cells; test: Flow cytometry cell labeling of Min6B1 cells; format: cell-based, mouse; details: streptavidin phycoerytherin
[3] = test system: LNCaP cells; details: unconjugated toxin; read-out: IC50 (toxicity); cited from earlier work
[4] = target: T1, human protein tyrosine kinase-7; test: Binding of fluorescently labeled scgc8 aptamer prodrugs to target cells (FIG. 4A); details: fluorescently labeled aptamers
Text: (§1) In addition to adding drugs to aptamers by hybridization, a series of aptamer-prodrugs has been synthesized using a DNA aptamer (scgc8) which targets human protein tyrosine kinase-7. […] To stabilize these aptamers against serum nucleases, the oligonucleotides were generated bearing a 3′ inverted thymidine residue which dramatically stabilizes the serum half-life of DNA molecules to ˜20 hrs (Dass et al. 2002).
A ssDNA aptamer that targets protein kinase 7 was selected by Shanggun et al (J Proteome Res, 2008 7:2133). The aptamer, scgc.8, was adapted for the delivery of floxuridine (5FdU) by site specific incorporation this nucleoside analog drug during chemical synthesis. Aptamer prodrugs were synthesized bearing a 5′ fluorescein molecule and a 3′ inverted thymiding residue to enhance serum stability. The sequence of the parental aptamer and the aptamer prodrugs are: Scgc.8 […] (SEQ ID NO:8); Scgc.8-5 AU*CU*AACU*[…]*U*AGA (SEQ ID NO:9); Scgc.8-9 AU*CU*AACU*GCU*GCGCCGCCGGGAAAAU*ACU*GU*ACGGU*U*AGA (SEQ ID NO:10). U* denotes 5FdU.

[5] = test system: Jurkat cells; test: Jurkat cell growth inhibition / toxicity (FIG. 4B); format: cell-based, human; details: 500 nM, regular media (RPMI+10% FBS), 3' inverted thymidine
Text: as §1

[6] = test system: Min6B1 cells; test: Internalization into Min6B1 cells (fluorescence microscopy); format: cell-based, mouse
Description: Aptamers that target and are internalized by beta cells were identified by performing an internalization selection against the glucose-responsive immortalized mouse beta cell line Min6B1. As in the selection against the transferrin receptor described above, in order to drive the selection towards molecules that are internalized, following incubation with the RNA library, target cells were washed extensively and treated with trypsin and ribonuclease to remove any surface bound RNA. Following recovery of total RNA, aptamers were amplified, transcribed and the process was repeated.
When similar experiments were conducted with the unselected library, little or no fluorescent signal was observed.

[7] = test system: mouse (fibroblasts, brain endothelial, skeletal and myocardial muscles) and human (cervical and prostate cancer) cell lines; test: Specificity studies on additional mouse and human cell lines; format: cell-based

| Molecule | cell labeling [2] | binding to target cells [4] | inhibition of cell growth / toxicity [5] | other results |
| --- | --- | --- | --- | --- |
| Nc1nc(=O)n([C@H]2C[C@H](O)[C@@H](CO)O2)cc1F [free drug, 5F-deoxycytidine] | – | – | – | cell viability [1]: loss of cell viability |
| C1.min: minimized core of C1, SEQ ID NO:12 (UGCGAAUCCUCUAUCCGUUCUAAACGCUUUAUGAUUUCGCA; listed as RNA, chemistry not given here) | labeled cells as efficiently as the full length clone | – | – | – |
| gelonin | – | – | – | IC50 [3]: ~5 µM |
| scgc8-5: scgc8 with 5 of 9 thymidine residues replaced with floxuridine, SEQ ID NO:9 (AUCUAACUGCTGCGCCGCCGGGAAAATACTGTACGGUUAGA; floxuridine substitutions, chemistry not fully specified) | – | still bound target cells better than a scrambled control sequence (cntrl-9) but less efficiently than the non-drug containing aptamer (scgc8) | considerable lower levels of toxicity | – |
| scgc8-9: scgc8 with all 9 thymidine residues replaced with floxuridine, SEQ ID NO:10 (AUCUAACUGCTGCGCCGCCGGGAAAATACTGTACGGUUAGA; all 9 thymidines replaced with floxuridine, chemistry not fully specified) | – | still bound target cells better than a scrambled control sequence (cntrl-9) but less efficiently than the non-drug containing aptamer (scgc8) | inhibited cell growth as efficiently as free drug alone | – |
| C1: 2′F modified internalizing RNA selected against Min6B1 cells, SEQ ID NO:11 (nucleic acid, 2'-fluoro modified RNA library, positions of 2'-F not given here) GGGAGGUGAAUGGUUCUACGAUAUUGCGAAUCCUCUAUCCGUUCUAAACGCUUUAUGAUUUCGCAUAGUCCUUACAUGCGAGAUGACCACCGUAAUUGAAUUAAAUGCCCGCCAUGACCAG | significant cell labeling | – | – | internalization [6]: not only binds to, but is also internalized by this cell type; internalization ([6]; listed as dominant clone): readily internalized by Min6B1 cells; cell specificity of targeting / internalization [7]: targets several unrelated cell lines across different species; cell specificity of targeting / internalization ([7]; listed as dominant clone): not specific for beta cells |
